Key:
[1] = Stability test: aging of formulation samples in heated ovens per CIPAC MT 46.3, isoxadifen-ethyl content by HPLC; assay type: physicochemical; conditions: for RPH % (relative percentage of hydrolysis): stored at 54° C. for 1 week
Experimental: The stability of the isoxadifen-ethyl in these compositions was determined by aging samples in heated ovens having the same atmosphere therein, and then comparing the isoxadifen-ethyl content before and after aging to determine relative percentage of hydrolysis (RPH). RPH was calculated by the following equation: […]
Isoxadifen-ethyl content was determined by assaying the compositions with high-pressure liquid chromatography (HPLC) using reverse phase columns and eluants.
Samples prepared in Examples 4, 5 and 6 were stored at 54° C. for 1 week. The procedures are followed according to CIPAC MT 46.3. The concentration of isoxadifen-ethyl was measured at the end of each storage time by HPLC.

[2] = Stability of isoxadifen-ethyl (hydrolysis in water or during storage), general statement; assay type: physicochemical; conditions: dissolved or dispersed in water; storage with exposure to moisture
[3] = Example 4 oil based suspension concentrate (OD) with tribenuron-methyl, 10 weight % isoxadifen-ethyl
[4] = Example 5 soluble granules (SG) with metsulfuron-methyl, 7 weight % isoxadifen-ethyl
[5] = Example 6 water dispersible granules (WG) with metsulfuron-methyl, 7 weight % isoxadifen-ethyl

SMILES	RPH % (relative percentage of hydrolysis) [1, 3] [%]	RPH % (relative percentage of hydrolysis) [1, 4] [%]	RPH % (relative percentage of hydrolysis) [1, 5] [%]	stability (hydrolysis) [2]	stability when mixing with sulfonylurea herbicides in formulations ([1]; relative to formulations containing the amorphous form)
CCOC(=O)C1=NOC(c2ccccc2)(c2ccccc2)C1 [Amorphous isoxadifen-ethyl, Ethyl 4,5-dihydro-5,5-diphenyl-3-isoxazolecarboxylate]	50	40	45	highly unstable	–
CCOC(=O)C1=NOC(c2ccccc2)(c2ccccc2)C1 [Isoxadifen-ethyl, crystalline modification I] [Ethyl 4,5-dihydro-5,5-diphenyl-3-isoxazolecarboxylate]	0	0	0	–	significant increase in its stability
